What all share (type): ADME, organism-based
What all share (settings): in vivo

The nature of series [1]: Tmax in Wistar rat at 200 mg/kg, […] by LC-MS/MS analysis.
Series [2] is described as follows: Tmax in Wistar rat at 20 mg/kg, […] by LC-MS/MS analysis.
The nature of series [3]: Oral bioavailability in Wistar rat at 20 mg/kg by LC-MS/MS analysis.
A short description of series [4]: Oral bioavailability in human.

As usually defined, the Tmax is the time from dosing to the highest level. The term bioavailability denotes dose-corrected exposure relative to a reference, in per cent. Higher therefore signals good availability.

With `C=C1CC[C@@H]2[C@](C)(CO)[C@H](O)CC[C@@]2(C)[C@@H]1C/C=C1/C(=O)OC[C@H]1O` [ANDROGRAPHOLIDE], the values for the Tmax in series [1] and in series [2] were 39.6 min and 1.04 h, respectively. The values for the bioavailability in series [3] and in series [4] were 61.2% and 2.67%, respectively.

For the origin of these results see ChEMBL document CHEMBL6078639, “Andrographolide: A promising therapeutic agent against organ fibrosis” (Eur J Med Chem, 2024).
